This passage reports IC50 results from patent US9315503B2, “Kinase inhibitors” (CHIESI FARMACEUTICI S.p.A., priority 2011, dated 2016).

pIC50: −log10 of the molar value. Structures can show the parent of a compound that is named as a salt.

The test system of assay [1] is LPS-stimulated TNFα release from PBMCs. The assay is described as follows: LPS-stimulated PBMC TNFα release assay. It counts as cell-based. The following applies: inhibition of TNFα release, human PBMCs, LPS 10 ng/ml, 18 h, ELISA, read-out: p38α inhibition (IC50 values). Put shortly:
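TNFα in supernatants measured by ELISA after 18 h LPS (10 ng/ml) challenge of human PBMCs given 1 h compound pretreatment at 37 °C in medium with 1% FBS. Percent inhibition versus control release fitted to dose-response curves for IC50; at least three independent runs.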
(In general: In an ELISA, binding on a coated surface is turned into a signal by an enzyme label.)

The next assay has as its target T1, p38alpha (Homo sapiens, UniProt Q16539).
T1 construct: purchased Invitrogen PV3304
As to the kind of experiment: P38Alpha enzyme inhibition assay (Alphascreen kinase activity assay). As to conditions: 100 pM p38alpha, 250 μM ATP, 2 hours pre-incubation at 25° C., read-out: p38α inhibition (IC50 values). It counts as biochemical. Put shortly:
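AlphaScreen read-out: after an EDTA stop, an anti-phospho-ATF2 antibody with Protein A acceptor and donor beads measured substrate phosphorylation. Compounds sat 2 h at 25°C with 100 pM p38α and 0.3 µg/ml ATF-2 fusion protein (pH 7.5, 1% DMSO) before 250 µM ATP was added for 1 h. IC50 from dose-response.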
Background: Bead proximity is the source of the signal in Alpha formats.

In general, pIC50 refers to the IC50 on a negative log10 scale, so that one unit is a factor of ten.

T1 sequence (Q16539 whole entry): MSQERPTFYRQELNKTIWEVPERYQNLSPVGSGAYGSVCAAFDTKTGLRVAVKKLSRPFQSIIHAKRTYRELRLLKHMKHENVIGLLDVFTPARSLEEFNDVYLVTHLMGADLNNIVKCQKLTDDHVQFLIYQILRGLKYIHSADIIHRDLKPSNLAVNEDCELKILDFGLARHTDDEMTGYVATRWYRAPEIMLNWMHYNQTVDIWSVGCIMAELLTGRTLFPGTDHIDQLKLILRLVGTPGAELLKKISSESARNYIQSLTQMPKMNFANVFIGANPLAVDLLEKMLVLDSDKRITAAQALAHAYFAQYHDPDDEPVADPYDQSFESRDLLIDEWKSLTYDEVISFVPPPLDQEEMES

In the case of `CN1CCCC[C@H]1c1nnc2ccc(O[C@@H]3CC[C@H](NC(=O)Nc4cc(C(C)(C)C)nn4CCO)c4ccccc43)cn12` [Example 120, 1-[5-tert-Butyl-2-(2-hydroxy-ethyl)-2H-pyrazol-3-yl]-3-{(1S,4R)-4-[3-((S)-1-methyl-piperidin-2-yl)-[1,2,4]triazolo[4,3-a]pyridin-6-yloxy]-1,2,3,4-tetrahydro-naphthalen-1-yl}-urea], the pIC50 (in assay [1]; on p38alpha) was more than 8.00 each time.

As to `C[C@@H]1CCC[C@H](C)N1c1nnc2ccc(O[C@@H]3CC[C@H](NC(=O)Nc4cc(C(C)(C)C)nn4CCN4CCOCC4)c4ccccc43)cn12` [Example 121, 1-[5-tert-Butyl-2-(2-morpholin-4-yl-ethyl)-2H-pyrazol-3-yl]-3-{(1S,4R)-4-[3-((2S,6R)-2,6-dimethyl-piperidin-1-yl)-[1,2,4]triazolo[4,3-a]pyridin-6-yloxy]-1,2,3,4-tetrahydro-naphthalen-1-yl}-urea], the pIC50 (in assay [1]; on p38alpha) was more than 8.00 each time.

`CN(C)CCOc1cccc(-n2nc(C(C)(C)C)cc2NC(=O)N[C@H]2CC[C@@H](Oc3ccc4nnc(N5C6CCCC5CC6)n4c3)c3ccccc32)c1` [Example 122, 1-{(1S,4R)-4-[3-(8-Aza-bicyclo[3.2.1]oct-8-yl)-[1,2,4]triazolo[4,3-a]pyridin-6-yloxy]-1,2,3,4-tetrahydro-naphthalen-1-yl}-3-{5-tert-butyl-2-[3-(2-dimethylamino-ethoxy)-phenyl]-2H-pyrazol-3-yl}-urea formate salt]: the negative logarithm of the IC50 (pIC50) (in assay [1]; at p38alpha) was more than 8.00 in each case.

For `C[C@@H]1CCCCN1c1nnc2ccc(O[C@@H]3CC[C@H](NC(=O)Nc4cc(C(C)(C)C)nn4-c4cccc(OCCN(C)C)c4)c4ccccc43)cn12` [Example 123, 1-{5-tert-Butyl-2-[3-(2-dimethylamino-ethoxy)-phenyl]-2H-pyrazol-3-yl}-3-{(1S,4R)-4-[3-((R)-2-methyl-piperidin-1-yl)-[1,2,4]triazolo[4,3-a]pyridin-6-yloxy]-1,2,3,4-tetrahydro-naphthalen-1-yl}-urea partial formate salt], the pIC50 (in assay [1]; at p38alpha) was more than 8.00 throughout.

For the compound `C[C@@H]1CCC[C@H](C)N1c1nnc2ccc(O[C@@H]3CC[C@H](NC(=O)Nc4cc(C(C)(C)C)nn4-c4cnn(CCN5CCOCC5)c4)c4ccccc43)cn12` [Example 124, 1-[3-tert-Butyl-1′-(2-morpholin-4-yl-ethyl)-1′H-[1,4′]bipyrazolyl-5-yl]-3-((1S,4R)-4-[3-((2S,6R)-2,6-dimethyl-piperidin-1-yl)-[1,2,4]triazolo[4,3-a]pyridin-6-yloxy]-1,2,3,4-tetrahydro-naphthalen-1-yl)-urea formate salt], the pIC50 (in assay [1]; at p38alpha) was more than 8.00 each time.

On to `C[C@@H]1CCC[C@H](C)N1c1nnc2ccc(O[C@@H]3CC[C@H](NC(=O)Nc4cc(C(C)(C)C)nn4-c4cnn(CCN(C)C)c4)c4ccccc43)cn12` [Example 125, 1-[3-tert-Butyl-1′-(2-dimethylamino-ethyl)-1′H-[1,4′]bipyrazolyl-5-yl]-3-{(1S,4R)-4-[3-((2S,6R)-2,6-dimethyl-piperidin-1-yl)-[1,2,4]triazolo[4,3-a]pyridin-6-yloxy]-1,2,3,4-tetrahydro-naphthalen-1-yl}-urea], for which the pIC50 (in assay [1]; on p38alpha) was more than 8.00 each time.

As to `C[C@H]1CCCCN1c1nnc2ccc(O[C@@H]3CC[C@H](NC(=O)Nc4cc(C(C)(C)C)nn4C)c4ccccc43)cn12` [Example 126, 1-(5-tert-Butyl-2-methyl-2H-pyrazol-3-yl)-3-{(1S,4R)-4-[3-((S)-2-methyl-piperidin-1-yl)-[1,2,4]triazolo[4,3-a]pyridin-6-yloxy]-1,2,3,4-tetrahydronaphthalen-1-yl]-urea], the negative-log IC50 (pIC50) (in assay [1]; at p38alpha) was more than 8.00 in each case.
